Data from US9790233B2, “Compositions and methods of modulating 15-PGDH activity” (CASE WESTERN RESERVE UNIVERSITY, priority 2012, dated 2017).

Tests used:
CD45.2 marked marrow = assay: Competitive bone marrow transplant, blood chimerism; assay type: in vivo, C57BL/6J mice; details: donors 5 mg/kg IP daily for 3 doses; weeks 12 and 16
Experimental: On day 3 mice were sacrificed, marrow flushed and mixed at a 1:1 ratio with vehicle treated CD45.1 marrow. 2 million whole BM cells were injected into the tail vein of lethally irradiated CD45.1 mice and percent chimerism measured via flow cytometry at weeks 8, 12, 16.

[1] = Survival of irradiated mice receiving a bone marrow transplant; assay type: in vivo, C57BL/6J mice
Text: The experimental design is depicted in FIG. 50.
Under the conditions of the mouse colony during this study, control mice receiving 100,000-500,000 cells are all dead between days 4-13 of study. […] Such activity would be of particular utility in settings, such as transplantation with umbilical cord stem cells, in which donor cell numbers are limited.

SMILES: CCCC[S+]([O-])c1sc2nc(-c3cccs3)cc(-c3ccccc3)c2c1N (centres unmarked) [SW033291, 2-(butylsulfinyl)-4-phenyl-6-(thiophen-2-yl)thieno[2,3-b]pyridin-3-amine]
- percent blood chimerism of CD45.2 marked cells (CD45.2 marked marrow): significantly increased
- number of surviving mice ([1]; 1 × 10^5 donor marrow cells, Day 2): 3
- number of surviving mice ([1]; 1 × 10^5 donor marrow cells, Day 3): 3
- number of surviving mice ([1]; 1 × 10^5 donor marrow cells, Day 4): 2
- number of surviving mice ([1]; 1 × 10^5 donor marrow cells, Day 5): 1
- number of surviving mice ([1]; 1 × 10^5 donor marrow cells, Day 6): 0
- number of surviving mice ([1]; 2 × 10^5 donor marrow cells, Day 2): 3
- number of surviving mice ([1]; 2 × 10^5 donor marrow cells, Day 3): 3
- number of surviving mice ([1]; 2 × 10^5 donor marrow cells, Day 4): 3
- number of surviving mice ([1]; 2 × 10^5 donor marrow cells, Day 5): 3
- number of surviving mice ([1]; 2 × 10^5 donor marrow cells, Day 6): 2
- number of surviving mice ([1]; 2 × 10^5 donor marrow cells, Day 7): 2
- number of surviving mice ([1]; 2 × 10^5 donor marrow cells, Day 8): 2
- number of surviving mice ([1]; 2 × 10^5 donor marrow cells, Day 9): 2
- number of surviving mice ([1]; 2 × 10^5 donor marrow cells, Day 10): 2
- number of surviving mice ([1]; 2 × 10^5 donor marrow cells, Day 11): 2
- number of surviving mice ([1]; 2 × 10^5 donor marrow cells, Day 12): 1
- number of surviving mice ([1]; 2 × 10^5 donor marrow cells, Day 13): 0
- number of surviving mice ([1]; 5 × 10^5 donor marrow cells, Day 2): 3
- number of surviving mice ([1]; 5 × 10^5 donor marrow cells, Day 3): 3
- number of surviving mice ([1]; 5 × 10^5 donor marrow cells, Day 4): 3
- number of surviving mice ([1]; 5 × 10^5 donor marrow cells, Day 5): 3
- number of surviving mice ([1]; 5 × 10^5 donor marrow cells, Day 6): 3
- number of surviving mice ([1]; 5 × 10^5 donor marrow cells, Day 7): 3
- number of surviving mice ([1]; 5 × 10^5 donor marrow cells, Day 8): 2
- number of surviving mice ([1]; 5 × 10^5 donor marrow cells, Day 9): 2
- number of surviving mice ([1]; 5 × 10^5 donor marrow cells, Day 10): 2
- number of surviving mice ([1]; 5 × 10^5 donor marrow cells, Day 11): 2
- number of surviving mice ([1]; 5 × 10^5 donor marrow cells, Day 12): 2
- number of surviving mice ([1]; 5 × 10^5 donor marrow cells, Day 13): 2
- number of surviving mice ([1]; 5 × 10^5 donor marrow cells, Day 19): 2
- number of surviving mice ([1]; 11 Gy, 5 mg/kg IP bid, 1 × 10^5 donor marrow cells, Day 1): 3
- number of surviving mice ([1]; 11 Gy, 5 mg/kg IP bid, 2 × 10^5 donor marrow cells, Day 1): 3
- number of surviving mice ([1]; 11 Gy, 5 mg/kg IP bid, 5 × 10^5 donor marrow cells, Day 1): 3
- survival of transplanted mice ([1]; mouse, in vivo): promoted survival of mice receiving a bone marrow transplant
